ChEMBL document CHEMBL1909046, “DrugMatrix in vitro pharmacology data”

Tests used:
D(3) dopamine receptor = D(3) dopamine receptor (Homo sapiens, UniProt P35462); assay: DRUGMATRIX: Dopamine D3 radioligand binding (ligand: [3H] Spiperone); format: cell membranes, CHO, Membrane
Progesterone receptor = target: T1, Progesterone receptor (Bos taurus, UniProt Q690N0); assay: DRUGMATRIX: Progesterone radioligand binding (ligand: [3H] R-5020); format: tissue-based, Uterus; conditions: Not Active = under 50% inhibition at 10 µM
T1 sequence (Q690N0 whole entry): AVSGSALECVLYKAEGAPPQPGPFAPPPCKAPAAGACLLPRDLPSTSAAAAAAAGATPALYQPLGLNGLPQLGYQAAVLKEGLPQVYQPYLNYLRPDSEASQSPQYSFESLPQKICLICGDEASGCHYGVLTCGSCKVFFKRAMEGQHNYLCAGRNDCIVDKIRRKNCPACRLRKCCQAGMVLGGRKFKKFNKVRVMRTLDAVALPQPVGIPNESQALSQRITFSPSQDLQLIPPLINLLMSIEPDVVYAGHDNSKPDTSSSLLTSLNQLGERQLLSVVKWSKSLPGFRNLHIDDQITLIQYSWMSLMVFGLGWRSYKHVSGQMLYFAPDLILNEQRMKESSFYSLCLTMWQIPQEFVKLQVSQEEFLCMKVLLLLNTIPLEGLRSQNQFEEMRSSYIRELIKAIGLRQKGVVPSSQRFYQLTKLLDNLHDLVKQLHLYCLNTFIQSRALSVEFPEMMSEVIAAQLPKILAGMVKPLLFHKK

Cytochrome P450 3A4 = Cytochrome P450 3A4 (Homo sapiens, UniProt P08684); conditions: bti-tn-5b1-4; further: in other assays of this panel Not Active means under 50% inhibition at 10 µM
[1] = target: Sodium-dependent noradrenaline transporter (Homo sapiens, UniProt P23975); assay: DRUGMATRIX: Norepinephrine Transporter radioligand binding (ligand: [125I] RTI-55); format: cell membranes, MDCK, Membrane; conditions: Not Active = under 50% inhibition at 10 µM
[2] = DRUGMATRIX: Phorbol Ester radioligand binding (ligand: [3H] PDBu); format: cell membranes, Mus musculus, ICR, Brain, Membrane; conditions: Not Active = under 50% inhibition at 10 µM
[3] = target: T2, Alpha-2A adrenergic receptor (Homo sapiens, UniProt P08913); format: cell membranes, Sf9, Membrane; conditions: for Ki: read-out: Ki; on all read-outs here: in other assays of this panel Not Active means under 50% inhibition at 10 µM
T2 sequence (P08913 whole entry): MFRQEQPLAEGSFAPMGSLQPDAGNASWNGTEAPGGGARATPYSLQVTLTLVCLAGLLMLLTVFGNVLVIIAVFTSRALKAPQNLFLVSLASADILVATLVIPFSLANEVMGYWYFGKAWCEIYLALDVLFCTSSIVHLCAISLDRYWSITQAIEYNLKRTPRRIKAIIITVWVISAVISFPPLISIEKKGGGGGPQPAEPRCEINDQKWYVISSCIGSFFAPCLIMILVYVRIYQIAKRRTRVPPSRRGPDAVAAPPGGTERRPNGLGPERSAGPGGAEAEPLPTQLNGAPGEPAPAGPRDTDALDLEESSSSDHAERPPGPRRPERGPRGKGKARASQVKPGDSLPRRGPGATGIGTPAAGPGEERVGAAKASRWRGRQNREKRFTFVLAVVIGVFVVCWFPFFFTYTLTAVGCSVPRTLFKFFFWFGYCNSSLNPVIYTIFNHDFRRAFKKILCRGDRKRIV

Cytochrome P450 3A4, sequence (P08684 whole entry): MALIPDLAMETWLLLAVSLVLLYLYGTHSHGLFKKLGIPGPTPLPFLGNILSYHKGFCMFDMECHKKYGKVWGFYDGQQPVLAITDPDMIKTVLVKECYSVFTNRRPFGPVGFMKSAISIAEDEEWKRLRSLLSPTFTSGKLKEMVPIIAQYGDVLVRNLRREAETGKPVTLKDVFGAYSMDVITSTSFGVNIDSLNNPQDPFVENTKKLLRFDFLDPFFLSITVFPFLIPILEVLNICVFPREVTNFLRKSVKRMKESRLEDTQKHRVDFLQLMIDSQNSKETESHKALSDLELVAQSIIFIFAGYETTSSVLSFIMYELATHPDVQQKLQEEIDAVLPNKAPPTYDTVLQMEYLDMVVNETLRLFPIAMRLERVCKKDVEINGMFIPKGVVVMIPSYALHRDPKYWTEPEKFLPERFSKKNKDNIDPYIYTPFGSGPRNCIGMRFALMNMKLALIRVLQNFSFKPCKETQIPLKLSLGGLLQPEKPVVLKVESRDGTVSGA
Sodium-dependent noradrenaline transporter, sequence (P23975 whole entry): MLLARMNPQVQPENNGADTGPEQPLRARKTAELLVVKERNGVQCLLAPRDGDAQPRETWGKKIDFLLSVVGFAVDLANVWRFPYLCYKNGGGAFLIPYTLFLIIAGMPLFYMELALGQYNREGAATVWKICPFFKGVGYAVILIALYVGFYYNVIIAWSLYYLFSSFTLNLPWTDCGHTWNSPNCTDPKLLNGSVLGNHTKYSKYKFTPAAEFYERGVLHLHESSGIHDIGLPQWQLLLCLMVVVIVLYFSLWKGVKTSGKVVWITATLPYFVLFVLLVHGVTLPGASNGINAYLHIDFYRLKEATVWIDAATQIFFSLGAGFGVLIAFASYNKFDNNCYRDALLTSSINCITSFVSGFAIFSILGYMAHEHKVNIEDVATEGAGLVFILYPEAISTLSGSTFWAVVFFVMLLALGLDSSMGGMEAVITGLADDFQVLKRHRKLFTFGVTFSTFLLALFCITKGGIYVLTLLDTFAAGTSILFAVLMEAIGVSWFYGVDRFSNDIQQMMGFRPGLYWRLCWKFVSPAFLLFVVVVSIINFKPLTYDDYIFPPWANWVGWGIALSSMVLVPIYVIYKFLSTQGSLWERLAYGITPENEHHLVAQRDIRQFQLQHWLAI
D(3) dopamine receptor, sequence (P35462 whole entry): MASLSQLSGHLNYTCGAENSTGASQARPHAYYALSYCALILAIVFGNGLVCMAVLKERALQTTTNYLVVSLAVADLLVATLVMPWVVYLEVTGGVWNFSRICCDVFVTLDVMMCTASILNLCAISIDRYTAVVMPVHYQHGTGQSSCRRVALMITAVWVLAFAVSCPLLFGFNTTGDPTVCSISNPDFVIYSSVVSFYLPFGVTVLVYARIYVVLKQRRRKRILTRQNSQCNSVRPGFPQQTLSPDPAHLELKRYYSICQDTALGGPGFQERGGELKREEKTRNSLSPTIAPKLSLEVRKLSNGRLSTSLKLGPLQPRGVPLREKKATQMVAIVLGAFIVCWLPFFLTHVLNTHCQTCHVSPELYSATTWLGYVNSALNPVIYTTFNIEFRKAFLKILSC

Row | Structure (SMILES) | IC50 (D(3) dopamine receptor; cho) | IC50 (Progesterone receptor) | IC50 (Cytochrome P450 3A4) | Ki (Cytochrome P450 3A4) | IC50 ([1]; mdck) | IC50 [2] | Ki [2] | IC50 ([3]; sf9) | IC50 (D(3) dopamine receptor; read-out: IC50) | Ki (D(3) dopamine receptor; read-out: Ki) | IC50 ([3]; read-out: IC50) | Ki [3] | IC50 ([1]; read-out: IC50) | Ki ([1]; read-out: Ki)
1 | O=C1Nc2ccc(Cl)cc2C(c2ccccc2Cl)=NC1O (centres undefined) [LORAZEPAM] | Not Active | Not Active | Not Active | Not Active | Not Active | Not Active | Not Active | Not Active | – | – | – | – | – | –
2 | CO[C@@H]1[C@@H](OC)[C@H](C)[C@@](O)(CC(=O)O)O[C@H]1[C@H](C)[C@H]1O[C@@]2(CC[C@@](C)([C@H]3CC[C@@](C)([C@@H]4O[C@@H]([C@H]5O[C@](C)(O)[C@H](C)C[C@@H]5C)C[C@@H]4O[C@@H]4C[C@H](OC)[C@@H](OC)[C@H](C)O4)O3)O2)C[C@H](O)[C@H]1C [MADURAMICIN ACID] | – | Not Active | Not Active | Not Active | Not Active | Not Active | Not Active | – | 27 nM | 9.34 nM | 0.18 µM | 67 nM | – | –
3 | COc1c2occc2cc2ccc(=O)oc12 [METHOXSALEN] | Not Active | Not Active | Not Active | Not Active | Not Active | Not Active | Not Active | Not Active | – | – | – | – | – | –
4 | C[C@H]1C[C@@H]2[C@H]([C@@H](O)C[C@@]3(C)[C@H]2CC[C@]3(O)C(=O)CO)[C@@]2(C)C=CC(=O)C=C12 [METHYLPREDNISOLONE] | Not Active | Not Active | Not Active | Not Active | Not Active | Not Active | Not Active | Not Active | – | – | – | – | – | –
5 | Cc1cccc(C)c1OCC(C)N (centres undefined) [MEXILETINE] | Not Active | Not Active | Not Active | Not Active | Not Active | Not Active | Not Active | Not Active | – | – | – | – | – | –
6 | Nc1cc(N2CCCCC2)nc(N)[n+]1[O-] [MINOXIDIL] | Not Active | Not Active | Not Active | Not Active | Not Active | Not Active | Not Active | Not Active | – | – | – | – | – | –
7 | CO[C@H]1/C=C/O[C@@]2(C)Oc3c(C)c(O)c4c(O)c(c(/C=N/N5CCN(C6CCCC6)CC5)c(O)c4c3C2=O)NC(=O)/C(C)=C\C=C\[C@H](C)[C@H](O)[C@@H](C)[C@@H](O)[C@@H](C)[C@H](OC(C)=O)[C@@H]1C [RIFAPENTINE] | Not Active | Not Active | – | – | Not Active | Not Active | Not Active | Not Active | – | – | – | – | – | –
8 | CCCCOc1cc(CC2CNC(=O)N2)ccc1OC (centres undefined) [RO-201724] | Not Active | Not Active | Not Active | Not Active | Not Active | Not Active | Not Active | Not Active | – | – | – | – | – | –
9 | CC[C@@H](C(=O)[C@@H](C)[C@@H](O)[C@H](C)[C@@H]1O[C@@H]([C@@H](CC)C(=O)O)CC[C@@H]1C)[C@H]1O[C@]2(C=C[C@@H](O)[C@]3(CC[C@@](C)([C@H]4CC[C@](O)(CC)[C@H](C)O4)O3)O2)[C@H](C)C[C@@H]1C [SALINOMYCIN] | Not Active | Not Active | Not Active | Not Active | Not Active | Not Active | Not Active | Not Active | – | – | – | – | – | –
10 | O=C(Oc1ccccc1C(=O)O)c1ccccc1O [SALSALATE] | Not Active | Not Active | Not Active | Not Active | Not Active | Not Active | Not Active | Not Active | – | – | – | – | – | –
11 | O=C(O)c1cn(-c2ccc(F)cc2)c2cc(N3CCNCC3)c(F)cc2c1=O [SARAFLOXACIN] | Not Active | Not Active | Not Active | Not Active | Not Active | Not Active | Not Active | Not Active | – | – | – | – | – | –
12 | CN[C@H]1CC[C@@H](c2ccc(Cl)c(Cl)c2)c2ccccc21 [SERTRALINE] | Not Active | Not Active | Not Active | Not Active | – | – | – | – | – | – | – | – | – | –
13 | COc1cc2nc(N3CCN(C(=O)C4CCCO4)CC3)nc(N)c2cc1OC (centres undefined) [TERAZOSIN] | Not Active | – | – | – | Not Active | Not Active | Not Active | – | – | – | 13.8 µM | 5190 nM | – | –
14 | CN(C/C=C/C#CC(C)(C)C)Cc1cccc2ccccc12 [TERBINAFINE] | Not Active | Not Active | – | – | – | Not Active | Not Active | – | – | – | 5.7 µM | 2140 nM | 4.13 µM | 4.1 µM
15 | CCCCNc1ccc(C(=O)OCCN(C)C)cc1 [TETRACAINE] | Not Active | Not Active | – | – | Not Active | Not Active | Not Active | Not Active | – | – | – | – | – | –
16 | Clc1ccccc1CN1CCc2sccc2C1 [TICLOPIDINE] | Not Active | Not Active | Not Active | Not Active | Not Active | Not Active | Not Active | – | – | – | – | – | – | –
